{"source": "paper PMC7854751", "about": "“Estimation of radiation dose from ingested tritium in humans by administration of deuterium-labelled compounds and food” (Scientific Reports, 2021)", "key": {"[1]": {"design": "method as in PMID 32424291", "conditions": "cited from earlier work; for d1, ratio of organic compounds to inorganic compounds immediately after administration: 13C-labelled compound experiments, mean ± standard deviation ref 31"}, "[2]": {"experiment": "D/H ratios in urine after oral administration of D2O, HDO metabolic model fit", "type": "in vivo, human", "conditions": "for mean half-life for the FWD compartment of the HDO models: mean and standard deviation; for Rr, recovery ratio to the administered deuterium / k1, transfer rate from OBD compartment to FWD compartment / k2, transfer rate from FWD compartment to OBD compartment / ka, transfer rate from DT compartment to FWD compartment / ke, excretion rate from FWD compartment: once orally", "experimental": "(§1) The total number of volunteers was 42, although some dropped out of the experiment, for various reasons. The data from these volunteers were eliminated. This study lasted 4 years; administration experiments were conducted from September to January, and each volunteer participated in one of the 4 years. […]\n(§2) Urine and breath samples were periodically collected from days − 7 to 119, where the first day of the administration was defined as day 0. Urine samples were collected daily, when the volunteers rose in the morning, until day 28, then every two or three days until day 119. Additional samples were collected frequently, after administration. Urine samples were collected at every urination until bedtime, on days of administration. Breath samples were collected immediately prior to the administration, every 20 min from 12:30 to 17:10, and then hourly from 18:00 until bedtime.\n(§3) Urine was distilled, and the condensed water was collected for the measurement of D/H ratio, using a mass spectrometer (Iso Prime 100; Elementar, Langenselbold, Germany). Breath samples were collected using an airtight bag. The samples were analysed within 3 days. After purifying the CO2 in the breath using a gas chromatograph (MAT GC; Thermo Electron, Waltham, MA, USA), the ^13C/^12C ratio was measured using a mass spectrometer (Dalta V Advantage; Thermo Electron, Waltham, MA, USA).\n(§4) The increments were calculated of D/H and ^13C/^12C ratios above the background values measured for the samples before administration. The ratios were normalised to the same dosage (1 g D or ^13C per 70 kg body weight). When the D/H or ^13C/^12C ratios were below the limits (90% upper confidence limits of the background fluctuation), to cut off the data and any subsequent data were discarded.\n(§5) A metabolic model was developed, for each volunteer. For volunteers in the glucose, alanine, palmitic acid, and soybean groups, the model structure of the OBD shown in Fig. 1 was adopted, while for volunteers in the D2O group, the model structure for HDO was adopted. For each model, parameters were determined using the least squares method, using Microsoft Excel version 2007. The detailed procedures have been described previously. […]"}, "[3]": {"design": "method as in PMID 21947005", "conditions": "once orally; individual volunteer; presumed value, no clear second component; from mean residence time of carbon in adipose tissue ref 41; cited from earlier work"}, "[4]": {"experiment": "D/H ratios in urine after oral administration of D-labelled compounds and soybean, OBD metabolic model fit", "type": "in vivo, human", "experimental": "as §1\nAll D-labelled and ^13C-labelled compounds were purchased from Cambridge Isotopes, Inc. (Tewksbury). In each D-labelled molecule, hydrogen bound to carbon was uniformly replaced by D. Such D is not exchangeable to hydrogen in free body water after administration until it is metabolised to HDO, and is called non-exchangeable OBD (Nx-OBD). Exchangeable hydrogen, which was not bound to carbon, such as hydroxyl group hydrogen, was not replaced by D. In each ^13C-labelled compound, ^13C was uniformly labelled.\nThe D-labelled soybean was harvested three times. The harvested soybeans were boiled, freeze-dried, and then homogenised. The soy powder product was orally administered. To measure the D/H ratio, the soy powder was first immersed in drinking water, to replace exchangeable OBD (Ex-OBD), which was not bound to carbon. After the second freeze-drying process, the D/H ratio was measured using a mass spectrometer (Iso Prime 100; Elementar, Langenselbold, Germany). Buried tritium is defined as the tritium in a large biomolecule that remains in the molecule after rinsing samples with tritium-free water, despite its exchangeable position in the molecule. A fraction of buried deuterium was considered to remain in soybean powder. […] Therefore, we considered that effect of the amount of buried deuterium on the measured D/H ratio of soy powder was negligible. The hydrogen content of the soybean powders (gH/gDW) was measured using a gas chromatograph (NCH-22F; Sumika Chemical Analysis Service, Oosaka, Japan). The OBD content of the soybean powders (gOBD/gDW) were calculated from their D/H ratio and hydrogen content, and are summarised in Table 7.\nas §2, §3, §4, §5"}, "[5]": {"conditions": "intravenous injection ref 28; cited from earlier work"}}, "note": "Where “and” joins values, the source holds several entries; their conditions need not be identical. Equal entries are not always repeated. Where two headings read alike, the source gives them in different places. Marks after values point to notes of the source that are not given here."}
{"smiles": "N[C@@H](Cc1ccccc1)C(=O)O", "note": "[^13C-labelled phenylalanine]", "values": [{"measurement": "d1, ratio of organic compounds to inorganic compounds immediately after administration", "setting": "[1]", "result": "0.25 ± 0.04"}]}
{"smiles": "[2H]O[2H]", "note": "[D2O]", "values": [{"measurement": "mean half-life for the FWD compartment of the HDO models", "setting": "[2]; combined group of volunteers", "result": "240 ± 72", "unit": "h"}, {"measurement": "mean half-life for the FWD compartment of the HDO models", "setting": "[2]; females (n = 6)", "result": "240 ± 72", "unit": "h"}, {"measurement": "mean half-life for the FWD compartment of the HDO models", "setting": "[2]; males (n = 3)", "result": "240 ± 48", "unit": "h"}, {"measurement": "Rr, recovery ratio to the administered deuterium", "setting": "[2]; all volunteers average", "result": 0.93}, {"measurement": "k1, transfer rate from OBD compartment to FWD compartment", "setting": "[2]; all volunteers average", "result": 0.010, "unit": "day⁻¹"}, {"measurement": "k2, transfer rate from FWD compartment to OBD compartment", "setting": "[2]; all volunteers average", "result": 0.010, "unit": "day⁻¹"}, {"measurement": "ka, transfer rate from DT compartment to FWD compartment", "setting": "[2]; all volunteers average", "result": 26, "unit": "day⁻¹"}, {"measurement": "ke, excretion rate from FWD compartment", "setting": "[2]; all volunteers average", "result": 0.071, "unit": "day⁻¹"}, {"measurement": "Rr, recovery ratio to the administered deuterium", "setting": "[2]; female average", "result": 0.93}, {"measurement": "k1, transfer rate from OBD compartment to FWD compartment", "setting": "[2]; female average", "result": 0.011, "unit": "day⁻¹"}, {"measurement": "k2, transfer rate from FWD compartment to OBD compartment", "setting": "[2]; female average", "result": 0.013, "unit": "day⁻¹"}, {"measurement": "ka, transfer rate from DT compartment to FWD compartment", "setting": "[2]; female average", "result": 28, "unit": "day⁻¹"}, {"measurement": "ke, excretion rate from FWD compartment", "setting": "[2]; female average", "result": 0.071, "unit": "day⁻¹"}, {"measurement": "Rr, recovery ratio to the administered deuterium", "setting": "[2]; individual female volunteers", "result": "1.0 and 0.99 and 0.70 and 0.97 (2×) and 0.93"}, {"measurement": "k1, transfer rate from OBD compartment to FWD compartment", "setting": "[2]; individual female volunteers", "result": "0.0067 day⁻¹ and 0.0074 day⁻¹ and 0.019 day⁻¹"}, {"measurement": "k2, transfer rate from FWD compartment to OBD compartment", "setting": "[2]; individual female volunteers", "result": "0.016 day⁻¹ and 0.010 day⁻¹"}, {"measurement": "ka, transfer rate from DT compartment to FWD compartment", "setting": "[2]; individual female volunteers", "result": "8.9 day⁻¹ and 23 day⁻¹ and 92 day⁻¹ and 14 day⁻¹ and 6.4 day⁻¹ and 21 day⁻¹"}, {"measurement": "ke, excretion rate from FWD compartment", "setting": "[2]; individual female volunteers", "result": "0.056 day⁻¹ and 0.098 day⁻¹ and 0.081 day⁻¹ and 0.043 day⁻¹ and 0.078 day⁻¹ and 0.072 day⁻¹"}, {"measurement": "Rr, recovery ratio to the administered deuterium", "setting": "[2]; individual male volunteers", "result": "0.91 and 1.0 and 0.92"}, {"measurement": "k1, transfer rate from OBD compartment to FWD compartment", "setting": "[2]; individual male volunteers", "result": "0.0091 day⁻¹ and 0.0083 day⁻¹"}, {"measurement": "k2, transfer rate from FWD compartment to OBD compartment", "setting": "[2]; individual male volunteers", "result": "0.0092 day⁻¹ and 0.0065 day⁻¹"}, {"measurement": "ka, transfer rate from DT compartment to FWD compartment", "setting": "[2]; individual male volunteers", "result": "39 day⁻¹ and 8.6 day⁻¹ and 21 day⁻¹"}, {"measurement": "ke, excretion rate from FWD compartment", "setting": "[2]; individual male volunteers", "result": "0.059 day⁻¹ and 0.063 day⁻¹ and 0.090 day⁻¹"}, {"measurement": "Rr, recovery ratio to the administered deuterium", "setting": "[2]; male average", "result": 0.94}, {"measurement": "k1, transfer rate from OBD compartment to FWD compartment", "setting": "[2]; male average", "result": 0.0087, "unit": "day⁻¹"}, {"measurement": "k2, transfer rate from FWD compartment to OBD compartment", "setting": "[2]; male average", "result": 0.0079, "unit": "day⁻¹"}, {"measurement": "ka, transfer rate from DT compartment to FWD compartment", "setting": "[2]; male average", "result": 23, "unit": "day⁻¹"}, {"measurement": "ke, excretion rate from FWD compartment", "setting": "[2]; male average", "result": 0.071, "unit": "day⁻¹"}, {"measurement": "k2, transfer rate from FWD compartment to OBD compartment", "setting": "[3]", "result": "0.0017* d^−1"}]}
{"smiles": "NCC(=O)O", "note": "[^13C-labelled glycine]", "values": [{"measurement": "d1, ratio of organic compounds to inorganic compounds immediately after administration", "setting": "[1]", "result": "0.29 ± 0.04"}]}
{"smiles": "CCCCCCCC/C=C\\CCCCCCCC(=O)O", "note": "[^13C-labelled oleic acid]", "values": [{"measurement": "d1, ratio of organic compounds to inorganic compounds immediately after administration", "setting": "[1]", "result": "0.35 ± 0.11"}, {"measurement": "reported ratio of unsaturated fatty acids (d1) by the 13C-labelled experiment", "setting": "[1]", "result": "35 ± 11", "unit": "%"}]}
{"smiles": "OC[C@H]1OC(O)[C@H](O)[C@@H](O)[C@@H]1O", "note": "(stereo partly drawn) [D-labelled glucose]", "values": [{"measurement": "ke, excretion rate from FWD compartment", "setting": "[4]; once orally, all volunteers average", "result": 0.073, "unit": "day⁻¹"}, {"measurement": "ke, excretion rate from FWD compartment", "setting": "[4]; once orally, female average", "result": 0.067, "unit": "day⁻¹"}, {"measurement": "ke, excretion rate from FWD compartment", "setting": "[4]; once orally, individual female volunteers", "result": "0.072 d^−1 (2×) and 0.081 d^−1 and 0.057 d^−1 and 0.073 d^−1 and 0.049 d^−1"}, {"measurement": "ke, excretion rate from FWD compartment", "setting": "[4]; once orally, individual male volunteers", "result": "0.085 d^−1 (2×) and 0.097 d^−1 and 0.050 d^−1 and 0.078 d^−1"}, {"measurement": "ke, excretion rate from FWD compartment", "setting": "[4]; once orally, male average", "result": 0.079, "unit": "day⁻¹"}]}
{"smiles": "O=[14C]([O-])O.[Na+]", "note": "[^14C-bicarbonate]", "values": [{"measurement": "half-life of carbon dioxide", "setting": "[5]", "result": 5, "unit": "min"}]}
{"smiles": "CCCCCCCCCCCCCCCC(=O)O", "note": "[D-labelled palmitic acid]", "values": [{"measurement": "ke, excretion rate from FWD compartment", "setting": "[4]; palmitic acid group, orally once daily for four successive days, all volunteers average", "result": 0.070, "unit": "day⁻¹"}, {"measurement": "ke, excretion rate from FWD compartment", "setting": "[4]; palmitic acid group, orally once daily for four successive days, female average", "result": 0.083, "unit": "day⁻¹"}, {"measurement": "ke, excretion rate from FWD compartment", "setting": "[4]; palmitic acid group, orally once daily for four successive days, individual female volunteers", "result": "0.059 day⁻¹ and 0.064 day⁻¹ and 0.11 day⁻¹ and 0.099 day⁻¹"}, {"measurement": "ke, excretion rate from FWD compartment", "setting": "[4]; palmitic acid group, orally once daily for four successive days, individual male volunteers", "result": "0.059 day⁻¹ and 0.055 day⁻¹ and 0.078 day⁻¹ and 0.063 day⁻¹ and 0.040 day⁻¹"}, {"measurement": "ke, excretion rate from FWD compartment", "setting": "[4]; palmitic acid group, orally once daily for four successive days, male average", "result": 0.059, "unit": "day⁻¹"}]}
{"smiles": "CCCCC/C=C\\C/C=C\\CCCCCCCC(=O)O", "note": "[^13C-labelled linoleic acid]", "values": [{"measurement": "d1, ratio of organic compounds to inorganic compounds immediately after administration", "setting": "[1]", "result": "0.29 ± 0.12"}, {"measurement": "reported ratio of unsaturated fatty acids (d1) by the 13C-labelled experiment", "setting": "[1]", "result": "29 ± 12", "unit": "%"}]}
